Measurements taken from patent US20100130738A1 (priority 2007, published 2010).
pIC50: −log10 of the molar value.

Columns and labels:
[1] = target: T1, PDE3A catalytic domain (PDE3Acat) (Homo sapiens, UniProt Q14432); test: Phosphodiesterase inhibitory activity, recombinant PDE3Acat, [3H]cAMP; format: biochemical; settings: 30° C. 20 minutes, read-out: IC50 (μmol/L) PDE3
T1 construct: isolate the cDNA of a PDE3A catalytic domain; made in house; host or cells: Sf9 insect cells (baculovirus, Bac-to-Bac / Gateway)

[2] = target: T2, PDE4Bcat (Homo sapiens, UniProt Q07343); test: Phosphodiesterase inhibitory activity, recombinant PDE4Bcat, [3H]cAMP; format: biochemical; settings: 30° C. 20 minutes, read-out: IC50 (μmol/L) PDE4
T2 construct: made in house; host or cells: Sf9 insect cells (baculovirus, Bac-to-Bac / Gateway)
T2 sequence (Q07343 330-659 limits assumed): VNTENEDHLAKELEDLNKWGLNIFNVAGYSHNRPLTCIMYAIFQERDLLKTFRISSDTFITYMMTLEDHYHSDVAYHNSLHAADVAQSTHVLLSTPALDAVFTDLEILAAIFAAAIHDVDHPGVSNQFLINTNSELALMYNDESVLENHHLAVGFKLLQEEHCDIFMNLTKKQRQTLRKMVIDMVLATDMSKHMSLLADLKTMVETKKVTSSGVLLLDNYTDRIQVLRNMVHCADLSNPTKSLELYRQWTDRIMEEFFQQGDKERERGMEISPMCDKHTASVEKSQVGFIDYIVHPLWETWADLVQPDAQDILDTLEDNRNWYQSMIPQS

T1 sequence (Q14432 674-1093 limits assumed): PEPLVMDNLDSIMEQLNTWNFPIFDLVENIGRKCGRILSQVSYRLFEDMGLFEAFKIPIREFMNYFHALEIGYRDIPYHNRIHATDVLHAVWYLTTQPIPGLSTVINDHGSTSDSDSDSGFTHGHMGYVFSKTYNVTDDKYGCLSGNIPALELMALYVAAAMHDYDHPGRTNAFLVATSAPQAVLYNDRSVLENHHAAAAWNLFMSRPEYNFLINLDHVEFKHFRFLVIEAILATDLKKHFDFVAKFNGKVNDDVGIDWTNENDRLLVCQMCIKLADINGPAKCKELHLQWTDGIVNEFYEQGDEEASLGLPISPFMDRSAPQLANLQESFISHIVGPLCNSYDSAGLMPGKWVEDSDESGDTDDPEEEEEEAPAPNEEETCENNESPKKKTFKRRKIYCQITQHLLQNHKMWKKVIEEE

Row | SMILES | pIC50 [1] | pIC50 [2]
1 | COc1ccc(C2=NN(CCCCOc3ccc(C4=NNC(=O)CC4)c(F)c3F)C(=O)C2(C)C)c2nc(C(F)(F)F)nn12 [Example 226, 2-[4-[2,3-Difluoro-4-(6-oxo-1,4,5,6-tetrahydropyridazin-3-yl)phenoxy]butyl]-5-(5-methoxy-2-trifluoromethyl-[1,2,4]triazolo[1,5-a]pyridin-8-yl)-4,4-dimethyl-2,4-dihydro-pyrazol-3-one] | > 8.00 | 7.00 to 8.00
2 | COc1ccc(C2=NN(CCCCOc3ccc(C4=NNC(=O)CC4)c(F)c3F)C(=O)C2(C)C)c2cc(C(F)(F)F)oc12 [Example 216, 2-[4-[2,3-Difluoro-4-(6-oxo-1,4,5,6-tetrahydropyridazin-3-yl)phenoxy]butyl]-5-(7-methoxy-2-trifluoromethylbenzofuran-4-yl)-4,4-dimethyl-2,4-dihydro-pyrazol-3-one] | > 8.00 | > 8.00
3 | CCc1cc2c(C3=NN(CCCCOc4ccc(C5=NNC(=O)C5(C)C)c(F)c4F)C(=O)C3(C)C)ccc(OC)n2c1 [Example 233, 5-(2-Ethyl-5-methoxyindolidin-8-yl)-2-[4-[2,3-difluoro-4-(4,4-dimethyl-5-oxo-4,5-dihydro-1H-pyrazol-3-yl)phenoxy]butyl]-4,4-dimethyl-2,4-dihydro-pyrazol-3-one] | 7.00 to 8.00 | 6.00 to 7.00
4 | CCc1ccc2c(C3=NN(CCCCOc4ccc(C5=NNC(=O)CC5C)cc4OC)C(=O)C3(C)C)ccc(OC)c2n1 (stereo not drawn) [Example 208, 5-(2-Ethyl-8-methoxyquinolin-5-yl)-2-[4-[2-methoxy-4-(4-methyl-6-oxo-1,4,5,6-tetrahydropyridazin-3-yl)phenoxy]butyl]-4,4-dimethyl-2,4-dihydro-pyrazol-3-one] | 7.00 to 8.00 | 6.00 to 7.00
5 | CCc1ccc2c(C3=NN(CCCCOc4ccc(C5=NNC(=O)C5(C)C)cc4OC)C(=O)C3(C)C)ccc(OC)c2n1 [Example 204, 5-(2-Ethyl-8-methoxyquinolin-5-yl)-2-[4-[2-methoxy-4-(4,4-dimethyl-5-oxo-4,5-dihydro-1H-pyrazol-3-yl)phenoxy]butyl]-4,4-dimethyl-2,4-dihydro-pyrazol-3-one] | 6.00 to 7.00 | 6.00 to 7.00
6 | COc1ccc(C2=NN(CCCCOc3ccc(C4=NNC(=O)C4(C)C)c(F)c3F)C(=O)C2(C)C)c2sc(C(F)(F)F)nc12 [Example 230, 2-[4-[2,3-Difluoro-4-(4,4-dimethyl-5-oxo-4,5-dihydro-1H-pyrazol-3-yl)phenoxy]butyl]-5-(4-methoxy-2-trifluoromethylbenzo[d]thiazol-7-yl)-4,4-dimethyl-2,4-dihydro-pyrazol-3-one] | 7.00 to 8.00 | > 8.00
7 | CCc1cc2c(C3=NN(CCCCOc4ccc(C5=NNC(=O)CC5C)c(F)c4F)C(=O)C3(C)C)ccc(OC)n2c1 (stereo not drawn) [Example 231, 5-(2-Ethyl-5-methoxyindolidin-8-yl)-2-[4-[2,3-difluoro-4-(4-methyl-6-oxo-1,4,5,6-tetrahydropyridazin-3-yl)phenoxy]butyl]-4,4-dimethyl-2,4-dihydro-pyrazol-3-one] | > 8.00 | 6.00 to 7.00
8 | COc1ccc(C2=NN(CCCCOc3ccc(C4=NNC(=O)CC4C)c(F)c3F)C(=O)C2(C)C)c2cc(C(F)(F)F)oc12 (stereo not drawn) [Example 218, 2-[4-[2,3-Difluoro-4-(4-methyl-6-oxo-1,4,5,6-tetrahydropyridazin-3-yl)phenoxy]butyl]-5-(7-methoxy-2-trifluoromethylbenzofuran-4-yl)-4,4-dimethyl-2,4-dihydro-pyrazol-3-one] | > 8.00 | > 8.00
9 | COc1ccc(C2=NN(CCCCOc3ccc(C4=NNC(=O)CC4C)c(F)c3F)C(=O)C2(C)C)c2nc(C(F)(F)F)nn12 (stereo not drawn) [Example 225, 2-[4-[2,3-Difluoro-4-(4-methyl-6-oxo-1,4,5,6-tetrahydropyridazin-3-yl)phenoxy]butyl]-5-(5-methoxy-2-trifluoromethyl-[1,2,4]triazolo[1,5-a]pyridin-8-yl)-4,4-dimethyl-2,4-dihydro-pyrazol-3-one] | > 8.00 | 7.00 to 8.00
10 | CCc1cc2c(C3=NN(CCCCOc4ccc(C5=NNC(=O)CC5)c(F)c4F)C(=O)C3(C)C)ccc(OC)n2c1 [Example 232, 5-(2-Ethyl-5-methoxyindolidin-8-yl)-2-[4-[2,3-difluoro-4-(6-oxo-1,4,5,6-tetrahydropyridazin-3-yl)phenoxy]butyl]-4,4-dimethyl-2,4-dihydro-pyrazol-3-one] | > 8.00 | 7.00 to 8.00
11 | CCc1ccc2c(C3=NN(CCCCOc4ccc(C5=NNC(=O)C5(C)C)cc4)C(=O)C3(C)C)ccc(OC)c2n1 [Example 201, 5-(2-Ethyl-8-methoxyquinolin-5-yl)-2-[4-[4-(4,4-dimethyl-5-oxo-4,5-dihydro-1H-pyrazol-3-yl)phenoxy]butyl]-4,4-dimethyl-2,4-dihydro-pyrazol-3-one] | 6.00 to 7.00 | 7.00 to 8.00
12 | COc1ccc(C2=NN(CCCCOc3ccc(C4=NNC(=O)CC4C)cc3)C(=O)C2(C)C)c2ccc(C(C)C)nc12 (stereo not drawn) [Example 195, 5-(8-Methoxy-2-isopropylquinolin-5-yl)-2-[4-[4-(4-methyl-6-oxo-1,4,5,6-tetrahydropyridazin-3-yl)phenoxy]butyl]-4,4-dimethyl-2,4-dihydro-pyrazol-3-one] | > 8.00 | 6.00 to 7.00
13 | COc1ccc(C2=NN(CCCCOc3ccc(C4=NNC(=O)C4(C)C)c(F)c3F)C(=O)C2(C)C)c2cc(C(F)(F)F)oc12 [Example 217, 2-[4-[2,3-Difluoro-4-(4,4-dimethyl-5-oxo-4,5-dihydro-1H-pyrazol-3-yl)phenoxy]butyl]-5-(7-methoxy-2-trifluoromethylbenzofuran-4-yl)-4,4-dimethyl-2,4-dihydro-pyrazol-3-one] | 6.00 to 7.00 | > 8.00
14 | COc1ccc(C2=NN(CCCCOc3ccc(C4=NNC(=O)C4(C)C)c(F)c3F)C(=O)C2(C)C)c2nc(C(F)(F)F)nn12 [Example 227, 2-[4-[2,3-Difluoro-4-(4,4-dimethyl-5-oxo-4,5-dihydro-1H-pyrazol-3-yl)phenoxy]butyl]-5-(5-methoxy-2-trifluoromethyl-[1,2,4]triazolo[1,5-a]pyridin-8-yl)-4,4-dimethyl-2,4-dihydro-pyrazol-3-one] | 7.00 to 8.00 | 6.00 to 7.00
15 | CCc1ccc2c(C3=NN(CCOc4ccc(C5=NNC(=O)CC5C)c(F)c4F)C(=O)C3(C)C)ccc(OC)c2n1 (stereo not drawn) [Example 242, 5-(2-Ethyl-8-methoxyquinolin-5-yl)-2-[4-[2,3-difluoro-4-(4-methyl-6-oxo-1,4,5,6-tetrahydropyridazin-3-yl)phenoxy]ethyl]-4,4-dimethyl-2,4-dihydro-pyrazol-3-one] | > 8.00 | 7.00 to 8.00
